# According to patent US20080280890A1, “HYDROXYLAMINE COMPOUNDS AND METHODS OF THEIR USE” (priority 2007, published 2008):
# Structures can show the parent of a compound that is named as a salt.
# Legend:
# [1] = test system: Human neuroblastoma SKN-SH cells, resistant to doxorubicin; test: Chemoresistance: cancer cell viability (MTT) in presence or absence of doxorubicin; assay type: cell-based; conditions: compound 50 ug/mL, MTT
# Excerpt: A method for evaluating a compound's propensity to overcome cancer cell chemoresistance is described in “Caspase Inhibition Switches Doxorubicin-Induced Apoptosis To Senescence”, Abdelhadi Rebbaa, Xin Zheng, Pauline M Chou and Bernard L Mirkin, Oncogene (2003) 22, 2805-2811. Resistant human cancer cells to doxorubicin were selected by stepwise exposure to drug concentrations ranging from 10^−9 M-10^−6 M over 3 months. They were then subjected to treatment with the doxorubicin alone or in combination with hydroxylamine compounds 1-12, 16, 20, and 21 (Table 4). The cells were incubated with the drugs for 72 hours, and cell viability was measured by the MTT assay. Additionally, molecular pathways that might be associated with increased chemo-responsiveness with these compounds were investigated. p Cancer Cell Viability Data for certain hydroxylamines in the presence or absence of Doxorubicin is listed in Table 4.
# A method for evaluating a compound's propensity to overcome cancer cell chemoresistance is described in “Caspase Inhibition Switches Doxorubicin-Induced Apoptosis To Senescence”, Abdelhadi Rebbaa, Xin Zheng, Pauline M Chou and Bernard L Mirkin, Oncogene (2003) 22, 2805-2811. Human neuroblastoma SKN-SH cells (ATCC Cat. No. HTB-11) were cultured in Dulbecco's Modified Eagles Medium (DMEM; Gibco, Grand Island, N.Y.) supplemented with 10% fetal bovine serum (FBS; Sigma-Aldrich, St. Louis, Mo.) at 37° C. in a 95% Air/5% CO2 atmosphere. Resistant human cancer cells to doxorubicin were selected by stepwise exposure to drug concentrations ranging from 10^−9M-10^−6M over 3 months. They were then subjected to treatment with the doxorubicin alone or in combination with hydroxylamine compounds. The cells were incubated with the drugs for 72 hours, and cell viability was measured by the MTT assay. This consists of adding 10 μl/well of MTT (5 mg/ml solution) and incubation for 4 h at 37° C. The precipitate formed is then solubilized by addition of 100 μl of HCL 0.5 N/Isopropanol and incubation for 15 hours at 37° C. The optical density is measured at 570 nm and cell survival is estimated by comparison to untreated cells. Each point represents 4 wells data represent average ± SE. Additionally, molecular pathways that might be associated with increased chemo-responsiveness with these compounds were investigated.
# Cytotoxic activity of doxorubicin and hydroxylamine analogs were quantitatively determined by a colorimetric assay utilizing 3-(4,5-dimethyl-2-thiazolyl) 2,5-diphenyl tetrazolium bromide (MTT; Sigma-Aldrich, St. Louis, Mo.). Briefly, cells were seeded at 10^4 cells/well in 96-well plates and maintained in culture for 24 hours at 37° C. in DMEM supplemented with 10% FBS. Drugs were added to designated wells and cells were incubated for […], following which MTT (10 μL of 5 mg/ml solution) was added to each 100 μl well and incubated for 4 hours at 37° C. The cells were solubilized by incubation with 100 μl of HCl 0.5N in isopropanol for 15 hours at 37° C. The optical density of this solution was measured at 570 nm and the percentage of viable cells estimated by comparison with untreated control cells.
# [2] = test system: Angiogenesis in CAM model; test: Neovascularization on the CAM (chick chorioallantoic membrane model of angiogenesis); assay type: in vivo, chicken; conditions: for Percent inhibition of angiogenesis in CAM model at 30 ug: unit assumed
# Procedure: In vivo neovascularization was examined by the method previously described by Auerbach et al. (J. Dev. Biol. 41:391-394 (1974)). Ten-day old chicken embryos were purchased from Spafas, Inc. (Preston, Conn.) and were incubated at 37° C. with 55% relative humidity. In the dark, with the aid of a candling lamp, a small hole was punctured in the shell concealing the air sac with a hypodermic needle. A second hole was punctured in the shell on the broadside of the egg directly over an […] portion of the embryonic membrane, as observed during candling. An artificial air sac was created beneath the second hole by applying gentle vacuum to the first hole using a small rubber squeeze bulb. The vacuum caused the chorioallantoic membrane (CAM) to separate from the shell.
# A window, approximately 1.0 cm^2, was cut in the shell over the dropped CAM with the use of a small crafts grinding wheel (Dremel, Division of Emerson Electric Company Racine, Wis.). The window allowed direct access to the underlying CAM.
# A pro-angiogenic agent was added to induce new blood vessel branches on the CAM of 10-day old embryos. Filter disks of #1 filter paper (Whatman International, United Kingdom) were punched using a small puncher and were soaked in 3 mg/mL cortisone acetate (Sigma, St. Louis, Mo.) in a solution (95% ethanol and water). The disks were subsequently air dried under sterile conditions. The disks were then suspended in PBS (Phosphate Buffered Saline) and placed on growing CAMs. Filters treated with TP-H (TEMPOL-H) or TEMPOL and/or H2O2 or TP-H and/or bFGF or VEGF were placed on the first day of the 3-day incubation.
# For inducing angiogenesis, sterile filter disks were saturated with bFGF (1 μg/ml) (Life Technologies, Gaithersburg, Md.) or other pro-angiogenesis factors and control disks were saturated with PBS without Calcium and Magnesium. […]
# Using sterile forceps one filter/CAM was placed from the window. The window was sealed with Highland brand transparent tape.
# After 24-48 hr, 10-25 ul of test agent was injected intravenously or added topically into the CAM membrane. Eight-Ten eggs/treatment group were used.
# CAM tissue directly beneath filter disk was harvested from embryos treated 48 hours prior with compound or control. Tissues were washed three times with PBS. Sections were placed in a 35-mm petri dish (Nalge Nunc, Rochester, N.Y.) and examined under a SV6 stereomicroscope (Karl Zeiss, Thornwood, N.Y.) at 50× magnification.
# CAM sections from Petri dish were examined using SV6 stereomicroscope (Karl Zeiss) at 50× magnification. Digital images of CAM sections from Petri dish were collected using a 3-CCD color video camera system (Toshiba America, New York, N.Y.). These images were analyzed using Image-Pro Plus software (Media Cybernetics, Silver Spring, Md.).
# The number of branch points in blood vessels within the circular region superimposed to the area of a filter disk was counted for each section. After incubation at 37° C. with 55% relative humidity for 3 days, the CAM tissue directly beneath each filter disk was resected from control and treated CAM samples. Tissues were washed three times with PBS. Sections were placed in a 35-mm Petri dish (Nalge Nunc; Rochester, N.Y.) and were examined under a SV6 stereomicroscope (Karl Zeiss; Thornwood, N.Y.) at 50× magnification. Digital images of CAM sections adjacent to filters were collected using a 3-CCD color video camera system (Toshiba America; New York, N.Y.) and analyzed with the Image-Pro Plus software (Media Cybernetics; Silver Spring, Md.).
# The number of vessel branch points contained in a circular region equal to the area of a filter disk was counted for each section. Percent inhibition data are expressed as the quotient of the experimental value minus the negative control value divided by the difference between the positive control value and the negative control value. […]
Molecule,"Mean OD (×10^−3), cancer cell viability ([1]; Dox. 10^−6 M present (+))","Mean OD (×10^−3), cancer cell viability ([1]; Dox. absent (−))",Percent inhibition of angiogenesis in CAM model at 30 ug ([2]; 30 ug),"inhibition in vivo at 0.03 mg ([2]; Gallus gallus, 30 ug)","inhibition in vivo at 0.3 mg ([2]; Gallus gallus, 300 ug)",CAM data % Inhibition ([2]; 300 ug)
"1-Hydroxy-4-(4-Flurophenyl)-2,2,6,6-tetramethylpiperidine [Compound 62]",40.25 ×10^−3,184.75 ×10^−3,43.8%,–,–,–
CC1(C)C=C(CO)C(C)(C)N1O [Compound 8],197.25 ×10^−3,392.50 ×10^−3,88%,–,–,–
"CC1(C)CC(Oc2nsnc2Cl)CC(C)(C)N1O.Cl [Compound 13, 4-(4-chloro-1,2,5-thiadiazol-3-yloxyl)-1-hydroxyl-2,2,6,6-tetramethylpiperidine]",–,–,51.2%,–,–,–
"CC1(C)CC(NC(=O)CCN2CCOCC2)CC(C)(C)N1O.Cl [Compound 26, N-(1-hydroxy-2,2,6,6-tetramethylpiperidin-4-yl)-3-morpholinopropanamide]",261.50 ×10^−3,1056.33 ×10^−3,72%,–,–,–
"CC1(C)CC(c2nn[nH]n2)CC(C)(C)N1O.Cl [Compound 30, 1-hydroxy-2,2,6,6-tetramethyl-4-(2H-tetrazol-5-yl)piperidine]",310.00 ×10^−3,1301.25 ×10^−3,90.4%,–,–,–
"CC1(C)CC(NC(=O)C2CC2)CC(C)(C)N1O.Cl [Compound 31, N-(1-hydroxy-2,2,6,6-tetramethylpiperidin-4-yl)cyclopropanecarboxamide]",322.25 ×10^−3,1175.25 ×10^−3,38.8%,–,–,–
"CC1(C)CC(Oc2nsnc2N2CCOCC2)C(C)(C)N1O.Cl (centres unmarked) [Compound 32, 4-(4-(1-hydroxy-2,2,5,5-tetramethylpyrrolidin-3-yloxy)-1,2,5-thiadiazol-3-yl)morpholine]",231.50 ×10^−3,985.67 ×10^−3,–,–,–,–
"CC1(C)CC(CO)CC(C)(C)N1O.Cl [Compound 34, (1-hydroxy-2,2,6,6-tetramethylpiperidin-4-yl)methanol]",302.75 ×10^−3,1168.25 ×10^−3,–,–,–,–
CC1(C)C=C(CC2CNCCO2)C(C)(C)N1O.Cl.Cl (centres unmarked) [Compound 36],297.00 ×10^−3,1110.75 ×10^−3,–,–,–,–
"CC1(C)CC(=O)C(C)(C)N1O.Cl [Compound 37, 1-hydroxy-2,2,5,5-tetramethylpyrrolidin-3-one]",366.25 ×10^−3,1329.75 ×10^−3,–,–,–,–
"CC1(C)CC(NC(=O)C2CC2)C(C)(C)N1O.Cl (centres unmarked) [Compound 38, N-(1-hydroxy-2,2,5,5-tetramethylpyrrolidin-3-yl)cyclopropanecarboxamide]",378.50 ×10^−3,1202.75 ×10^−3,–,–,–,–
"COc1ccc(C2=C(c3cc(OC)c(OC)c(OC)c3)C(C)(C)N(O)C2(C)C)cc1C=O [Compound 46, 5-(2,5,-dihydro-4-(3,4,5-trimethoxyphenyl)-1-hydroxy-2,2,5,5-tetramethyl-1H-pyrrol-3-yl)-2-methoxybenzaldehyde]",32.75 ×10^−3,79.00 ×10^−3,45.1%,–,–,–
"COc1cc(COC2CC(C)(C)N(O)C(C)(C)C2)cc(OC)c1OC.Cl [Compound 48, 1-Hydroxyl-4-(3,4,5-trimethoxybenzyloxy)-2,2,6,6-tetramethylpiperidine]",50.67 ×10^−3,1118.00 ×10^−3,–,–,–,–
"CC1(C)CC(NC(=O)CCCCC2CCSS2)CC(C)(C)N1O (centres unmarked) [Compound 49, 5-(1,2-dithialan-3-yl)-N-(1-hydroxy-2,2,6,6-tetramethylpiperidin-4-yl)pentanamide]",195.00 ×10^−3,1330.25 ×10^−3,–,–,–,–
"COc1cc(C2=CC(C)(C)N(O)C(C)(C)C2)cc(OC)c1OC.Cl [Compound 50, 1-Hydroxy-2,3,6-trihydro-4-(3,4,5-trimethoxyphenyl)-2,2,6,6-tetramethylpiperidine]",54.50 ×10^−3,1226.33 ×10^−3,92.3%,–,–,–
CC(C)c1nsnc1OCC1=CC(C)(C)N(O)C1(C)C [Compound 51],71.00 ×10^−3,1208.25 ×10^−3,43%,–,–,–
CN1CCN(c2nsnc2OC2CC(C)(C)N(O)C(C)(C)C2)CC1 [Compound 52],195.00 ×10^−3,1186.33 ×10^−3,68.3%,–,–,–
"CC1(C)CC(Oc2nsnc2N2CCN(c3ccccc3)CC2)CC(C)(C)N1O.Cl.Cl [Compound 53, 4-(4-phenylpiperazin-1-yl)-3-[(2,2,6,6-tetramethyl-1-hydroxypiperidinyl)-4-oxy]-1,2,5-thiadiazole]",170.00 ×10^−3,1333.75 ×10^−3,–,–,–,–
"CC1(C)CC(O)CC(C)(C)N1O [TEMPOL-H HCl, 2,2,6,6-tetramethylpiperidine-1,4-diol, reference compound]",–,–,–,43 ± 10%,–,–
"O=C1O[C@H]([C@@H](O)CO)C(O)=C1O [Vitamin C, reference compound]",–,–,–,–,15 ± 7%,–
Vitamin E [reference compound],–,–,–,–,–,22 ± 6%
